Literature values in patent US20050202001A1 (priority 2002, published 2005).

What was measured:
[1] = test system: normal human neonatal melanocytes

For COc1cccc(-c2cc(=O)c3ccccc3o2)c1N [PD98059], which melanogenesis (human melanoma cells) is on record?
Its melanogenesis is “stimulated melanogenesis”.

What about the melanogenesis [1] of the same compound?
The melanogenesis was “stimulated melanogenesis”.
